From patent publication US20240398771A1, “TREATMENT OF SCLERODERMA AND RAYNAUD'S SYNDROME” (Aisa Pharma, Inc., priority 2023, published 2024)

How the values were obtained:
participants with SSc-RP [1] = experiment: Pain score (11-point Likert scale) recorded during weekly RP attacks; type: in vivo, human; settings: Tadalafil 5 mg (n = 4); Raynaud's pain, Table G
Excerpt: (§1) The relevant metrics measured by this tool daily are: • Study medication • SSc-RP symptoms (Reporting an attack including duration of attack) • Severity of the attack considering all symptoms of the attack e.g. tingling, numbness, pain, color changes (VAS 0-10 cm scale) • Participant's location at the time of the attack (inside home/outside home) • Selecting symptoms experienced during the attack (tingling, numbness, pain, color changes, other) • Pain rating during the attack (11-point Likert scale) • The RCS based on how much difficulty participants had with Raynaud's today, how many attacks the participant had, and how long they lasted. Participants will also be asked to consider how much pain, numbness, or other symptoms the Raynaud's caused in fingers (including painful sores), and how much the Raynaud's alone affected the use of hands today (VAS 0-10 cm scale).
The absolute change in highest pain score (11-point Likert scale) of weekly RP attacks from baseline to the end of each dosing period will be a secondary outcome variable. […] The variable will be calculated similar to frequency data as before.
The absolute change in average pain score (11-point Likert scale) of weekly RP attacks from baseline to the end of each Dosing Period will be a secondary outcome variable. […] The variable will be calculated similar to frequency data as before.

participants with SSc-RP [2] = experiment: Average severity (0-10) of weekly symptomatic RP attacks; type: in vivo, human; settings: Example 3
Excerpt: as §1
The absolute change in average severity of weekly RP attacks (VAS 0-10 cm scale) from baseline to the end of each Dosing Period was and will be a secondary outcome variable. The sponsor-developed participant-informed diary will be used to record data. Average severity of weekly RP attacks is defined as the total severity scores of RP attacks divided by total number of RP attacks within the last 7 days of each dosing period. […] The variable will be calculated similar to frequency data as before.

participants with SSc-RP [3] = experiment: SHAQ Standard Disability Index; type: in vivo, human; settings: Example 4, mITT Part A
Excerpt: The standard, validated, patient reported outcome measures tool for SSc patients, the SHAQ, will be collected at the time points specified in the study schedules (FIG. 2 and FIG. 3A and/or FIG. 3B). To assess the participant's quality of life. The SHAQ includes a Raynaud's VAS that will also be reported separately.
The standard, validated, patient reported outcome measures tool for SSc patients, the Scleroderma Health Assessment Questionnaire (SHAQ), will be used to assess the participant qualify of life. Details are attached in the Appendix. The participant quality of life will be scored, and a disability index calculated for each questionnaire completed by the patient at Screening and each in-clinic visit. The absolute change in participant quality of life from baseline to the end of each dosing period will be calculated similar to frequency data as before.
The SHAQ is used to calculate a Disability Index to assess the participant qualify of life. The eight categories assessed by the Disability Index are 1) dressing and grooming, 2) arising, 3) eating, 4) walking, 5) hygiene, 6) reach, 7) grip, and 8) common daily activities. For each of these categories, patients report the amount of difficulty they have in performing two or three specific activities. […]

[4] = 10 mg, single oral dose, healthy volunteers; cited from earlier work

SMILES | Baseline Average Pain Score [Mean (SD)] (participants with SSc-RP [1]) | severity of attacks as reported by patients, comparison in words (participants with SSc-RP [2]) | patient-reported SSc disease disability compared to placebo (participants with SSc-RP [3]) | CL/F, Mean [4] [L/h]
CN1CC(=O)N2[C@H](c3ccc4c(c3)OCO4)c3[nH]c4ccccc4c3C[C@@H]2C1=O [Tadalafil] | 5.47 (3.586) |  |  | 
COCCOC(=O)C1=C(C)NC(C)=C(C(=O)OC/C=C/c2ccccc2)C1c1cccc([N+](=O)[O-])c1 (stereo not shown) [Cilnidipine, 1,4-dihydro-2,6-dimethyl,4-(3-nitrophenyl)-3,5-pyridinedicarboxylic acid 2-methoxyethyl (2 E)-3-phenyl-2-propenyl ester] |  | 20 mg reducing severity more than 10 mg | may reduce | 304.7
